Test results: patent EP1338280A1, “COMBINATION OF AMINES AND VANADIUM (IV)/(V) COMPOUNDS FOR THE TREATMENT AND/OR PREVENTION OF DIABETES MELLITUS” (priority 2000, dated 2002)

Legend:
[1] = tested on: isolated rat adipocytes; experiment: Hexose transport ([3H]-2-deoxyglucose uptake) in isolated rat adipocytes; assay type: cell-based; design: 2-deoxyglucose uptake (stimulatory effect): dose or concentration left out as unconfirmed; conditions: for glucose transport: 45 min preincubation of fat cells with increasing concentrations, 5-min 2-DG uptake; for 2-deoxyglucose uptake (stimulatory effect): benzylamine or orthovanadate alone, 45 min incubation, ten-minute uptake
Protocol: Adipocyte isolation. Male Wistar rats (200-260 g) were sacrificed in a fed state, and the internal epididymal adipose tissues was dissected out and digested in Krebs-Ringer buffer as described (cf. C. Carpene et al., Biochem. PharmacoL 1990, voL 40, pp. 437-445). Adipose cells isolated is such a way were used in subsequent studies.
Hexose transport After a preincubation period of 45 min at 37 °C in vials containing 400 µl of cell suspension in KRBH with the tested products, [^3H]-2-deoxyglucose was added at a final concentration of 0.1 mM (approx. 1,300,000 d.p.m./vial). The assays were further incubated for 5 or 10 min and then stopped with 100 µl of cytochalasin B. Aliquots (200 µl) of the cell suspension were centrifuged in microtubes as described (cf. J.M. Olefsky, Biochem. J. 1978, voL 172, pp. 137-145). After centrifugation, the fat cells (upper part of the tubes) were placed in scintillation vials and the incorporated radioactivity was counted.

[2] = tested on: GLUT4; experiment: GLUT4 translocation: Western blot of GLUT4 in plasma membrane and low density microsome fractions of rat adipocytes; assay type: cell-based; design: abundance of GLUT4 in plasma membranes: dose or concentration left out as unconfirmed; conditions: for abundance of GLUT4 in plasma membranes: 45 minutes incubation, benzylamine or orthovanadate alone
Protocol: To verify whether the stimulation of glucose transport in rat adipocytes may be explained by a translocation of the insulin-sensitive glucose transporters from an internal site to the plasma membrane, as it is known for insulin, the amount of GLUT4 protein was determined in plasma membrane (PM) and low density microsome (LDM) fractions. […] These increases in GLUT4 content occurred without any significant change in the content of β1-integrin, a constitutive PM protein. Changes in the GLUT4 content of LDM mirrored, to a lesser extent, those reported in the PM (basal LDM content was decreased by 29 % and 12 % with insulin and tyramine plus orthovanadate respectively).
This study was carried out in order to determine whether the stimulation of glucose transport induced by the combination of benzylamine and orthovanadate was a consequence of alterations in the abundance of GLUT4 glucose carriers in the cell surface from adipose cells. Thus, isolated rat adipocytes were incubated in the absence or in the presence of insulin, benzylamine ([…]), orthovanadate ([…]) or the combination of benzylamine and orthovanadate, and 45 minutes later cells were homogenized and subjected to subcellular membrane fractionation. […] However, the incubation of cells with benzylamine and orthovanadate caused a 2.3-fold increase in the presence of GLUT4 in plasma membrane fractions. The effects of insulin or the combination benzylamine and orthovanadate on GLUT4 abundance in plasma membranes were specific and the plasma membrane marker β1-integrin remained unaltered after incubation with these agents. The recruitment of GLUT4 to the plasma membranes detected by insulin or the combination of benzylamine and orthovanadate was concomitant with a reduction of GLUT4 abundance in light microsomes. This was consistent with the view that benzylamine and orthovanadate translocate GLUT4 to the plasma membrane in isolated rat adipocytes.

[3] = tested on: streptozotocin-induced diabetic rats; experiment: Chronic administration in streptozotocin-induced diabetic rats; assay type: in vivo; conditions: for food and water consumption / weight of epididymal adipose tissue (adiposity): chronic treatment of diabetic rats
Protocol: (§1) Based on the finding of potent insulin-like effects of in vitro incubation of benzylamine and vanadate, the chronic administration of these compounds in diabetic rats was tested. To this end, streptozotocin-induced diabetic rats were implanted subcutaneously with osmotic minipumps releasing benzylamine (84 µmol/kg/day) or were sham-operated. […] A group of animals was also subjected to daily i.p. injection of vanadate (50 µmol/kg body wt) for two weeks.
In other studies, rats were daily injected intraperitoneally with 25 µmol/kg vanadate for the first week and with 50 µmol/kg for the second week. […] However, the combination of benzylamine and vanadate reduced hyperglycemia in diabetic rats during the second week of treatment (FIG. 7).
The chronic treatment with benzylamine and vanadate caused a substantial decrease in food and water consumption which returned to normal levels and an increase in the weight of epididymal adipose tissue. All these variations occurred in the absence of changes in body weight. The effects on adiposity or food and water intake were not detected when benzylamine or vanadate was administered alone. Furthermore the normalisation of glycemia caused by chronic treatment with both benzylamine and vanadate takes place in the absence of changes in plasma insulin concentrations.

[4] = assay type: physicochemical
Protocol: as §1

[5] = vanadate i.p. daily 25 µmol/kg first week and 50 µmol/kg second week, benzylamine 84 µmol/kg

NNC(N)=O [semicarbazide]
inhibition at 100 µM ([1]; Rattus norvegicus, Adipocyte, semicarbazide 0.1 mM, read-out: inhibition of the glucose transport promoted by 1 mM tyramine plus orthovanadate): 59 ± 7%
benzylamine-orthovanadate-stimulated 2-deoxyglucose uptake ([1]; semicarbazide 1 mM): abolished
glucose transport stimulated by 1 mM hydrogen peroxide plus 0.1 mM orthovanadate ([1]; semicarbazide 1 mM): unaffected

NCCc1ccc(O)cc1 [tyramine]
glucose transport [1]: not activated
synergism with low, ineffective dose of hydrogen peroxide on glucose transport ([1]; hydrogen peroxide 0.01 mM, not shown): no synergism
synergism with low, ineffective dose of insulin on glucose transport ([1]; insulin 10 pM, not shown): no synergism

NCCc1c[nH]c2ccc(O)cc12 [serotonin]
glucose transport [1]: not activated

OO [hydrogen peroxide]
glucose transport [1]: dose-dependently stimulated
activation at 1000 µM ([1]; Rattus norvegicus, Adipocyte, 0.75 h, 1 mM H2O2, preincubation 45 min, n = 23, read-out: effect relative to the maximal insulin effect): 46%
fold induction at 1000 µM ([1]; Rattus norvegicus, Adipocyte, 0.75 h, 1 mM H2O2, preincubation 45 min, n = 23, read-out: factor by which basal transport is multiplied): 5 ± 0.8

NCc1ccccc1 [benzylamine]
abundance of GLUT4 in plasma membranes [2]: did not alter
food and water consumption [3]: not detected
weight of epididymal adipose tissue (adiposity) [3]: not detected
glycemia [3, 5]: remained hyperglycemic
stability in implanted osmotic minipumps [4]: stable for two weeks
2-deoxyglucose uptake (stimulatory effect) [1]: no stimulatory effect

[Na+].[Na+].[Na+].[O]=[V]([O-])([O-])[O-] [orthovanadate, sodium orthovanadate Na3VO4]
abundance of GLUT4 in plasma membranes [2]: did not alter
amount of GLUT4 protein in the PM ([2]; Western blot, orthovanadate 0.1 mM, n = 3): 103 ± 8%
food and water consumption [3]: not detected
weight of epididymal adipose tissue (adiposity) [3]: not detected
glycemia ([3]; vanadate 50 µmol/kg body wt daily i.p. for two weeks, benzylamine 84 µmol/kg/day by osmotic minipumps): moderate reduction
glycemia [3, 5]: remained hyperglycemic
stimulation of glucose transport relative to that of 100 nM insulin (maximal insulin effect) ([1]; 1 mM tyramine, 0.1 mM orthovanadate, n = 40): 5 ± 1%
2-deoxyglucose uptake (stimulatory effect) [1]: did not stimulate
basal or insulin-stimulated glucose transport ([1]; orthovanadate alone 0.1 mM): did not affect

CNC[C@H](O)c1cccc(O)c1 [phenylephrine]
glucose transport [1]: not activated
